{
  "source": "paper PMC10477886",
  "about": "“Adamantaniline Derivatives Target ATP5B to Inhibit Translation of Hypoxia Inducible Factor‐1α” (Advanced Science, 2023)",
  "key": {"[1]": {"test_system": "HIF‐1α protein level", "assay": "western blot of HIF‐1α protein level in cells", "format": "cell-based, human", "experimental": "Cells were lysed with RIPA lysis (Epizyme, PC101) containing 1% cocktail protease inhibitors (MCE), and protein concentrations were determined by BCA kits (Beyotime, P0012S). Samples were denatured using DS‐PAGE Protein Staining and Loading Buffer (5×) (Beyotime, P0015L) followed by boiling for 10 min at 98 °C then the proteins were fractionated by 10% or 12.5% SDS‐PAGE and transferred to Cellulose Nitrate Membrane Filters (WHATMAN). After blocking in 5% non‐fat milk for 2 h at room temperature, the membrane was incubated overnight with specific antibodies at 4 °C, followed by horseradish peroxidase (HRP)‐linked anti‐mouse or anti‐rabbit secondary antibody (Cell Signaling Technology). Finally, An Immobilon Western Chemiluminescent HRP Substrate Kit (Merck Millipore) was used for protein bands detection. In addition, blots were probed with anti‐β‐actin (Merck, Darmstadt, Germany) antibody as the internal control."}, "[2]": {"test_system": "HIF‐1α target genes (VEGF and PDK1) mRNA expression", "assay": "quantitative RT‐PCR of HIF‐1α target genes", "format": "cell-based, human", "settings": "listed as HI‐101", "experimental": "Total RNA was isolated using Trizol reagent (Invitrogen). Complementary DNA was synthesized using a Reverse Transcriptase reagent (Promega). Fluorescence real‐time PCR was performed with the double‐stranded DNA dye SYBR Master Mix (Roche Diagnostics Corporation, Indianapolis, IN, USA) and the Applied Biosystems Step One Plus detection system (ABI 7900). The upstream and downstream gene‐specific primers were as follows. • HIF‐1α sense: 5′‐[…]‐3′, • HIF‐1α antisense: 5′‐[…]‐3′; • HIF‐1β sense: 5′‐[…]‐3′, • HIF‐1β antisense:5′‐[…]‐3′; • VEGF sense: 5′‐[…]‐3′, • VEGF antisense: 5′‐[…]‐3′; • PDK1 sense:5′‐[…]‐3′, • PDK1 antisense:5′‐GGAGGTCTCAACACGAGGT‐3′; • β‐actin sense: 5′‐[…]‐3′, • β‐actin antisense: 5′‐[…]‐3′; • ATP5D sense:5′‐ […]‐3′, • ATP5D antisense: 5′‐[…]‐3′; • ATP5E sense: 5′‐ […]‐3′, • ATP5E antisense:5′‐[…]‐3′; • ATP5F1 sense: 5′‐ […]‐3′, • ATP5F1 antisense:5′‐[…]‐3′."}, "[3]": {"biological_target": "T1, ATP synthase (Bos taurus, UniProt P00829)", "T1 construct": "purchased Abcam ab109907", "assay": "MitoTox Complex V OXPHOS activity assay", "format": "biochemical", "settings": "up to 50 µM", "experimental": "The activity of complex V was determined using the MitoTox Complex V OXPHOS Activity Assay kit from Abcam (ab109907, Cambridge, MA, USA), according to the instructions. The activity of complex V was measured by monitoring the change in absorbance at 340 nm over a period of 2 h at 30 °C. Oligomycin (Selleck, […]) was used as a positive control for the assay."}, "[4]": {"biological_target": "T2, interaction between ATP5B and HIF‐1α mRNA (Homo sapiens, UniProt P06576)", "T2 construct": "endogenous in cells", "T2 sequence (P06576 48-529)": "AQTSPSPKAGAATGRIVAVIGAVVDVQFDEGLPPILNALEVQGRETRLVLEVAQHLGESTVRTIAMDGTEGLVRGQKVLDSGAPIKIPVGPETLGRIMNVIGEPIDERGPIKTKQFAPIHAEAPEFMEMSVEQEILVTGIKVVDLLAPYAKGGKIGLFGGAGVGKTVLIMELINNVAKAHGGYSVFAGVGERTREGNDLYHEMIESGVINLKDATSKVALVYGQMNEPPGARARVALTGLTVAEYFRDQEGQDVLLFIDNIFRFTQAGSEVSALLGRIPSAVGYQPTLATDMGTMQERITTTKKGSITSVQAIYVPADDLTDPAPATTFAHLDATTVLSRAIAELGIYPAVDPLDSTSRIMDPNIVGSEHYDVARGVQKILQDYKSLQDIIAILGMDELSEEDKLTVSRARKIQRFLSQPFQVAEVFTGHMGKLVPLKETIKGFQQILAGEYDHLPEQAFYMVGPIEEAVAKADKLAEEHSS", "assay": "RNA‐binding protein immunoprecipitation", "format": "cell-based", "settings": "immunoprecipitation with anti‐ATP5B antibody", "excerpt": "It has been reported recently that KUSC‐5037 inhibited HIF‐1α transcription by suppressing FoF1‐ATP synthase activity.^[ [35] ^] Thus, we wondered whether HI‐101 inhibited HIF‐1α translation in a similar way. Several ATP synthase inhibitors with various mechanisms of action have been reported.^[ [54] ^] Among them, Oligomycin inhibits the ATP synthase activity by binding the FO domain; Bedaquiline, an FDA‐approved drug, inhibits mitochondrial ATP production by targeting the gamma subunit of the ATP synthase;^[ [55] ^] Aurovertin B decreases ATP synthase activity by targeting the subunits of F1 domain. We first measured HIF‐1α transcriptional activity and protein level with the presence of reported ATP synthase inhibitors. […] A recent study reported that ATP5B shut down mPTP by binding circRNA SCAR in an enzymatic‐independent way,^[ [56] ^] which reminded us whether ATP5B played a similar role in blocking HIF‐1α translation. RNA‐binding protein immunoprecipitation was then performed using the Magna RIP RNA‐Binding Protein Immunoprecipitation Kit (Millipore, Burlington, MA) to detect the interaction between ATP5B and HIF‐1α mRNA."}, "[5]": {"test_system": "HIF‐1α translation", "assay": "polysome profile analysis", "format": "cell-based, human", "settings": "HEK293T, 12 h with MG‐132, hypoxia", "experimental": "Given that HI‐101 affected neither the transcription of HIF‐1α nor its degradation, we next tested whether HI‐101 regulated HIF‐1α translation. Polysome profile analysis is a commonly used method for studying translation process by separating polysomes and ribosomal subunits using a sucrose density gradient (SDG).^[ [53] ^] After treating with HI‐101 or DMSO for 12 h co‐incubated with MG‐132 under hypoxia condition, HEK293T cells were collected and polysome‐bound and polysome‐free mRNAs were isolated by using 10–50% sucrose gradient fractionation.\nPolysome RNA preparations and analysis were carried out as previously described.^[ [60] ^] Briefly, cells were seeded in 10 cm dishes, and washed with cold PBS containing 100 µg mL^−1 cycloheximide, and then lysed in a hypotonic lysis buffer [5 mM tris‐HCl (pH 7.5), 2.5 mM MgCl2, 1.5 mM KCl, 100 µg mL^−1 cycloheximide, 2 mM DTT, 0.5% Triton X‐100, and 0.5% sodium deoxycholate]. A lysate sample was used to isolate the cytoplasmic RNA using TRIzol (Invitrogen). […] Gradients were fractionated, and the optical density at 260 nm was continuously detected by a UV detector and fraction collector (Teledyne ISCO). […] Fractions with mRNA associated with polysomes were pooled and HIF‐1α mRNA abundance was detected by RT‐PCR amplification in each fraction of the polysome gradient. […]"}},
  "note": "Entries after “also recorded” stand apart in the source; their conditions may differ.",
  "data": [
    {"smiles": "O=C(Nc1ccc(C23CC4CC(CC(C4)C2)C3)cc1)c1cccc(Cl)c1", "note": "[1‐3a, N‐(4‐((3r,5r,7r)‐Adamantan‐1‐yl)Phenyl)−3‐Chlorobenzamide]", "values": [
      {"measurement": "rate of HIF‐1α protein degradation", "setting": "[1]; 10 µM with 100 µg mL^−1 CHX, hypoxia", "result": "did not have a significant effect on the rate of HIF‐1α protein degradation"},
      {"measurement": "HIF‐1α protein expression", "setting": "[1]; ATP5A or ATP5B knocked down by shRNA, up to 30 µM", "result": "failed to decrease HIF‐1α protein expression"},
      {"measurement": "HIF‐1α protein level", "setting": "[1]; hit confirmation, Figure S5", "result": "significantly reduced HIF‐1α protein level"},
      {"measurement": "HIF‐1α protein level", "setting": "[1]; hypoxia", "result": "specifically reduced the protein level of HIF‐1α in a dose‐dependent manner"},
      {"measurement": "HIF‐1α target genes mRNA expression", "setting": "[2]", "result": "significantly inhibited HIF‐1α transcriptional activity and the expressions of HIF‐1α target genes; also recorded: significantly decreased the mRNA expression of HIF‐1α target gene VEGF"},
      {"measurement": "ATP synthase activity", "setting": "[3]", "result": "no effect on ATP synthase activity"},
      {"measurement": "HIF‐1α mRNA binding to ATP5B", "setting": "[4]", "result": "improved HIF‐1α mRNA binding to ATP5B"},
      {"measurement": "HIF‐1α translation", "setting": "[5]", "result": "efficiently inhibited HIF‐1α translation"}
    ]}
  ]
}
